Assay results reported in patent US20100330200A1, “COMBINATION OF A RETINOID AND A PLATINUM ANTICANCER AGENT” (SIGMA-TAU INDUSTRIE FARMACEUTICHE RIUNITE S.P.A., priority 2006, published 2010).
Values joined by “and” are separate entries in the source; they are usually repeats but may differ in a detail not shown here. Identical values can stand only once. Like-named read-outs stand apart in the source and are kept apart here.

Assays:
[1] = tested on: human ovarian carcinoma xenografts; experiment: Panel of human ovarian carcinoma xenografts, statements over several tumors
Excerpt: (§1) Drug treatment started at different tumor sizes.
(§2) Cisplatin was delivered intravenously every seventh day for three times (q7d×3).

[2] = tested on: IGROV-1 ovarian carcinoma; experiment: i.p. growing IGROV-1 tumor, locoregional treatment, survival; type: in vivo
Description: The IGROV-1 ovarian carcinoma line was maintained by serial intraperitoneal passages in healthy mice. Tumor grows as ascites and small solid masses. IGROV-1 ascitic cells were collected and prepared as previously described [Pratesi G., Tortoreto M., Zunino F., Reg. Cancer Treat., 1990; 3:40-43] and 2.5×10^6 cells/mouse (in 0.2 ml of saline) were injected intraperitoneally. Mice developed hemorrhagic and diffuse carcinomatosis and eventually died by 20 to 35 days. Animals were inspected daily and weighed three times a week. The median day of death (median survival time: MST) was considered as the experimental end point.
Experimental groups consisted of seven mice.
The compound was delivered intraperitoneally at a dose of 10 mg/kg, daily for 5 days a week for 4 weeks (qd×5/w×4w), starting the day after cell injection. Drug activity was assessed as increase in life span (ILS) %, i.e. the percentage increase of MST in treated (T) over control (C) mice (T/C×100−100). Mice alive at the end of experiment (day 88) without disease were considered “long term survivors” (LTS).
For statistical comparison, curves reporting the percentage of surviving animals over time were estimated by the Kaplan-Meier product limit method and compared with the log-rank test. The test was two-sided.

in vivo = conditions: female, athymic Swiss nude, mouse, po
A2780 ovarian carcinoma = conditions: for LCK (gross log10 cell kill) / TVI % Obs.: A2780 s.c.
Excerpt: as §1, §2
(§3) For statistical comparison of tumor volumes in treated vs. control mice the Student's t test (two-sided) was used.

A2780/DDP = conditions: for LCK (gross log10 cell kill) / TVI % Obs.: A2780/DDP s.c.
Excerpt: as §1, §2, §3

1A9PTX22 = conditions: for LCK (gross log10 cell kill) / TVI % Obs.: 1A9PTX22 s.c.
Excerpt: as §1, §2, §3

HOC18 ovarian carcinoma = tested on: HOC18 ovarian carcinoma
Excerpt: as §1, §2, §3

[3] = tested on: FaDu human squamous pharynx carcinoma; experiment: FaDu squamous pharynx carcinoma s.c. xenograft; type: in vivo, mouse (human xenograft); conditions: ST1926 25 mg/kg oral qdx2/wx3w, carboplatin 40 mg/kg ip q7dx3, combination: carboplatin 1 h before ST1926
Description: The FaDu human squamous pharynx carcinoma cells (3×10^6 tumor cells) were injected sc in the right flank of CD1 nude female mice.

[4] = tested on: IGROV-1 ovarian carcinoma; conditions: in vivo
[5] = tested on: MDA-MB231 bone metastases; conditions: for Incidence of ostelytic lesions (%) / Incidence of ostelytic lesions (mice/total) / Osteolytic area mm^2 ± SD / Osteolytic area square pixel ± SD: 29 days after tumor implantation, cisplatin 3.1 mg/kg iv q7dx3; for Incidence of ostelytic lesions (%) / Incidence of ostelytic lesions (mice/total) / Osteolytic area mm^2 ± SD / Osteolytic area square pixel ± SD / frequency of osteolysis in tibias compared with the control group: ST1926 25 mg/kg po qdx2/wx3w; for frequency of osteolysis in tibias compared with the control group: radiographs 29 days from injection, cisplatin 3.1 iv q7dx3
Description: A human breast cancer cell line, MDA-MB231 was cultured in DMEM supplemented with 10% FCS and 1% penicillin-streptomycin solution in a humidified atmosphere of 5% CO2 in air. Cultured used for intratibial injection were at subconfluency. Cells (1×10^5) were suspended in 0.1 ml of PBS and injected into the tibia of female BALB/c-nu/nu mice with the use of a 27-gauge needle under the anesthesia ip of ketamine and xylazine chloride.
Animals were housed under a light-dark cycle, keeping temperature and humidity constant. Parameters of the animal rooms were assessed as follows: 22±2° C. temperature, 55±10% relative humidity, about 15-20 filtered air changes/hour and 12 hour circadian cycle of artificial light (7 a.m., 7 p.m.). At request, the environmental conditions were monitored and the data are retained in Animal Housing Archives. Drinking water was supplied ad libitum. Each mouse was offered daily a complete pellet diet (GLP 4RF21, Mucedola) throughout the study. The analytical certificates of animal food and water are retained at Sigma-Tau premises. All animals were weighed before starting the experiment and were subdivided into the different dosage groups. Each cage was identified by a paper tag indicating: cage number, group, date of tumor injection, starting date of treatment, name of the test item, dose and route of administration, date of sacrifice.
Incidence of osteolytic lesions and ostelytic area were evaluated 29 days after tumor implantation.

[6] = tested on: IGROV-1 ovarian carcinoma; experiment: s.c. growing IGROV-1 tumor, ST1926 doses and schedules
[7] = i.p. growing tumor, 10 mg/kg i.p. qdx5/wx4w
[8] = ST1926 30 mg/kg oral qdx2/wx3w, 1st day 2
[9] = ST1926 45 mg/kg oral qdx2/wx3w, 1st day 2
[10] = ST1926 30 mg/kg oral qdx2/wx3w, 1st day 34
[11] = HOC18 s.c., ST1926 30 mg/kg oral qdx2/wx3w, 1st day 27
[12] = cisplatin 3.1 mg/kg iv q7dx3, 1st day 2
[13] = HOC18 s.c., cisplatin 3.1 mg/kg iv q7dx3
[14] = HOC18 s.c., cisplatin 4.7 mg/kg iv q7dx3

## O=C(O)/C=C/c1ccc(-c2ccc(O)c(C34CC5CC(CC(C5)C3)C4)c2)cc1 [ST1926, E-4-(3-(1-adamantyl)-4-hydroxyphenyl)cinnamic acid]
[1]; ST1926 30 or 45 mg/kg per os qdx2/w for 2 or 3 weeks
  TV inhibition, all the tumors investigated: ≤ 50%
[2]; i.p. growing IGROV-1, 10 mg/kg qdx5/wx4 weeks
  survival time over control mice: significantly (P<0.01) increased
[2]; [7]
  ILS (increase in life span % in treated over control mice): 91%
  Tox (No. of dead mice/total no. of mice): 0/7
[2]; i.p. growing tumor, 10 mg/kg i.p. qdx5/wx4w, 10 mg/kg
  LTS (long term survivors at the end of experiments, day 88): 2 out of 7 and 2/7
In vivo
  MTD: 15 mg/kg
A2780 ovarian carcinoma; [8]
  LCK (gross log10 cell kill): 0.4
  TVI % Obs.: 40%
A2780 ovarian carcinoma; in vivo, 30 mg/kg
  BWL % (highest): 5%
A2780/DDP; [9]
  LCK (gross log10 cell kill): 0.8
  TVI % Obs.: 41%
A2780/DDP; in vivo, 45 mg/kg
  BWL % (highest): 13%
1A9PTX22; [10]
  LCK (gross log10 cell kill): 0.3
  TVI % Obs.: 35%
1A9PTX22; in vivo, 30 mg/kg
  BWL % (highest): 10%
HOC18 ovarian carcinoma; [11]
  LCK (gross log10 cell kill): 0.4
  TVI % Obs.: 37%
HOC18 ovarian carcinoma; in vivo, 30 mg/kg
  BWL % (highest): 3%
[3]
  TVI: 35%
[4]; 2 mg/kg
  BWL (body weight loss %, highest): 12%
[4]; 20 mg/kg
  BWL (body weight loss %, highest): 25%
[5]
  Incidence of ostelytic lesions (%): 63%
  Incidence of ostelytic lesions (mice/total): 5/8
  Osteolytic area mm^2 ± SD: 3.1 ± 1.0 mm^2
  Osteolytic area square pixel ± SD: 310 ± 106 square pixel
  frequency of osteolysis in tibias compared with the control group: no significant differences
[5]; in vivo, po, 25 mg/kg
  tolerability in tumor-bearing mice: well-tolerated
[6]; 15 mg/kg oral qdx2/wx2w
  LCK: 0.1
  TVI %: 39%
[6]; 15 mg/kg oral qdx5/wx3w
  LCK: 0.4
  TVI %: 52%
[6]; 5 × 2 mg/kg oral qdx5/wx4w
  LCK: 0.3
  TVI %: 35%

## N.N.O=C([O-])C1(C(=O)[O-])CCC1.[Pt+2] [carboplatin, reference compound]
[3]
  TVI: 52%

## N.N.[Cl][Pt][Cl] [Cisplatin, cisplatin]
[1]; optimal doses of cisplatin
  body weight loss: around 20%
A2780 ovarian carcinoma; [12]
  LCK (gross log10 cell kill): 0.4
  TVI % Obs.: 40%
A2780 ovarian carcinoma; cisplatin 4.7 mg/kg iv q7dx3
  LCK (gross log10 cell kill): 1.2
  TVI % Obs.: 80%
A2780/DDP; cisplatin 4.7 mg/kg iv q7dx3
  LCK (gross log10 cell kill): 0
  TVI % Obs.: 15%
1A9PTX22; cisplatin 3.1 mg/kg iv q7dx3
  LCK (gross log10 cell kill): 0.3
  TVI % Obs.: 38%
1A9PTX22; cisplatin 4.7 mg/kg iv q7dx3
  LCK (gross log10 cell kill): 0.6
  TVI % Obs.: 57%
HOC18 ovarian carcinoma; [13]
  LCK (gross log10 cell kill): 1.0
  TVI % Obs.: 41%
HOC18 ovarian carcinoma; [14]
  LCK (gross log10 cell kill): >>1.7
  TVI % Obs.: 81%
HOC18 ovarian carcinoma; HOC18 s.c., cisplatin 4.7 mg/kg iv q7dx3, tumors/total
  NED (not evidence of disease at the end of the experiment): 1/10
HOC18 ovarian carcinoma; HOC18 tumor, dose groups taken together
  complete responses (no evidence of disease at the experiment end), tumors: 1/10
[5]
  Incidence of ostelytic lesions (%): 71%
  Incidence of ostelytic lesions (mice/total): 5/7
  Osteolytic area mm^2 ± SD: 4.6 ± 1.9 mm^2
  Osteolytic area square pixel ± SD: 458 ± 190 square pixel
  frequency of osteolysis in tibias compared with the control group: no significant differences
